Entries after “also recorded” stand apart in the source; their conditions may differ.
What was measured:
HepG2 cells [1] = test: Mortality from simulated ischemia (LDH release); type: cell-based, human
Procedure: After heat treatment, cultures were incubated overnight at 37° C. When trypan blue exclusion was used as the criterion for cell survival, cells (unattached and attached) were harvested, and trypan blue-excluding cells were counted in a hemocytometer. In some experiments, cell killing was estimated by the lactate dehydrogenase (LDH) release assay, using the LDH Assay Kit from Sigma Corp. (St. Louis, Mo.). To quantify detachment from the substratum, cultures were washed three times with prewarmed DMEM, and the number of cells remaining on dishes were determined using a hemocytometer. […] Ischemic conditions were simulated as described previously (Mestril, R. et al., J. Clin. Invest., 93:759–767 (1994)). Briefly, cells were placed in slightly hypotonic HBSS (1.3 mM CaCl2, 5 mM KCl, 0.3 mM KH2PO4, 0.5 mM MgCl2, 0.4 mM MgSO4, 69 mM NaCl, 4 mM NaHCO3, 0.3 mM Na2HPO4) without glucose or serum, and made hypoxic for 4–6 hours at 37° C. Control cells were left under normoxic conditions for the same period of time. Hypoxia was achieved by using an air-tight jar from which oxygen was removed by displacement with argon. After 10 minutes of gas exchange, the oxygen concentration was <0.2%. Hypoxia was maintained using the oxygen-consuming GasPak System from BBL Microbiology Systems (Cockeysville, Md.).

HeLa-CAT cells [2] = test: Cell proliferation and cell cycle distribution (FACS, propidium iodide); type: cell-based, human
Procedure: This cell cycle arrest was followed by flow cytometry of propidium iodide-stained cells. To determine whether mutHSF-induced expression (enhanced expression) of hsp protects the cells from hyperthermia-induced cell cycle arrest, cells were either co-transfected with a CMV promoter-linked mutHSF gene construct and a GFP construct, or singly transfected with the GFP construct. After heat treatment and postincubation as described herein, cells were sorted based on GFP fluorescence. […]
For fluorescence-activated cell sorting, cells from cultures transfected or co-transfected with EGFP-expressing construct were removed from tissue culture dishes by treatment with 0.04% EDTA in phosphate-buffered saline (PBS) and were resuspended in PBS. […] Excitation wavelength was 488 nm, and detection wave lengths were 650 nm (long pass) for propidium iodide and 520 nm (narrow band) for detection of EGFP fluorescence. […]
Protein synthesis dropped to about 10% of the normal rate during heat shock but, after a 1 hour recovery period, returned to pre-shock level in HSF1(+)-expressing but not control cells. […] Fluorescence-activated cell sorting and analyses of DNA content were performed on a FACStar Plus machine (Becton-Dickinson, San Jose, Calif.) configured as described elsewhere (Parks, D. R. et al., In: The Handbook of Experimental Immunology, 4th Edition. Vol. 29. pp. 1–29, 1986). […]

rodent cell lines = test: hsp overexpression in rodent cell lines; type: cell-based; details: several rodent cell lines
HepG2 cells [3] = test: Mortality from exposure to cyclophosphamide (LDH release, mortality); details: cyclophosphamide 20 mM
HeLa-CAT cells [4] = test: Cell survival after heat shock, count of β-galactosidase-positive cells; type: cell-based, human; details: heat shock 48° C./10 minutes; p<0.05
Procedure: To also assess the effect of expression of HSF1(−) on stress-induced cell killing, cultures were transfected with a beta-galactosidase gene or co-transfected with the beta-galactosidase gene and the HSF1(−) construct.
Transfected cultures were subjected to a severe heat shock (48° C./10 minutes; about 75% cell survival) or left untreated, and β-galactosidase-positive cells were counted the following day. Untreated, singly and doubly transfected cultures contained similar number of β-galactosidase-expressing cells. In the heat-shocked cultures, the presence of HSF1(−) increased cell killing by about 60% (p<0.05). Thus, the increase in Hsp levels occurring as a consequence of a stressful event has a significant, immediate protective effect.

Row | Substance | decrease of mortality from simulated ischemia (HepG2 cells [1]) | heat-induced G2/M cell cycle arrest (HeLa-CAT cells [2]; 43° C. heat shock, GFP-positive cells, listed as mutHSF) | cell proliferation (HeLa-CAT cells [2]; FACS-isolated, days two to four) | pattern of hsp overexpression (rodent cell lines) | reduction of mortality by LDH leakage assay (HepG2 cells [3]) | reduction of cyclophosphamide-caused mortality (HepG2 cells [3]; 24 hour) | increase in cell killing (HeLa-CAT cells [4])
1 | human HSF1d202–316 [HSF1(+)] | more than 50% | much lower proportion of cells in G2/M phase; also recorded: only a small fraction | severely inhibited cell proliferation | hsp90 and, to a lesser extent, hsp25 were clearly overexpressed; the rate of hsp70 synthesis was only marginally enhanced | 43% | 55% | 
2 | human HSF1d453–523 [HSF1(−)] |  |  |  |  |  |  | about 60%

From US7053052B2, “Therapies involving mutated heat shock transcription factor” (priority 1997, dated 2006)
